Laboratory results: the supplement of paper PMC10307832

Experiments:
Test in all cases: relative viability (nuclei count vs DMSO), 5 days (fraction); higher = more cells survive
Lapatinib + Luminespib = compound: CS(=O)(=O)CCNCc1ccc(-c2ccc3ncnc(Nc4ccc(OCc5cccc(F)c5)c(Cl)c4)c3c2)o1 [Lapatinib] + CCNC(=O)c1noc(-c2cc(C(C)C)c(O)cc2O)c1-c1ccc(CN2CCOCC2)cc1 [Luminespib] (partner 0.01 µM)
In short: (§1)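 Cells from lung cancer lines were seeded into 1536-well plates and, one day later, dosed by pin tool. Treatments were either a single drug or a fixed dose of an anchor drug with five library-drug doses (not always all listed) in √10 steps. After 5 days, nuclei were stained in a one-step fixation (final 0.05% Triton X-100, 1% formaldehyde, 1 ug/ml Hoechst) and counted on 4× images, and relative viability is the treated-to-vehicle nuclei ratio, as the median of duplicate plates.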

Lapatinib + Foretinib = compound: CS(=O)(=O)CCNCc1ccc(-c2ccc3ncnc(Nc4ccc(OCc5cccc(F)c5)c(Cl)c4)c3c2)o1 [Lapatinib] + COc1cc2c(Oc3ccc(NC(=O)C4(C(=O)Nc5ccc(F)cc5)CC4)cc3F)ccnc2cc1OCCCN1CCOCC1 [Foretinib] (partner 0.25 µM)
In short: as §1

Lapatinib + AZD7762 = compound: CS(=O)(=O)CCNCc1ccc(-c2ccc3ncnc(Nc4ccc(OCc5cccc(F)c5)c(Cl)c4)c3c2)o1 [Lapatinib] + NC(=O)Nc1cc(-c2cccc(F)c2)sc1C(=O)N[C@H]1CCCNC1 [AZD7762] (partner 0.2 µM)
In short: as §1

Lapatinib + Decitabine = compound: CS(=O)(=O)CCNCc1ccc(-c2ccc3ncnc(Nc4ccc(OCc5cccc(F)c5)c(Cl)c4)c3c2)o1 [Lapatinib] + Nc1ncn([C@H]2C[C@H](O)[C@@H](CO)O2)c(=O)n1 [Decitabine] (partner 2 µM)
In short: as §1

Cell Line	relative viability (Lapatinib + Luminespib; first compound 0.2 µM)	relative viability (Lapatinib + Luminespib; first compound 2 µM)	relative viability (Lapatinib + Foretinib; first compound 0.02 µM)	relative viability (Lapatinib + Foretinib; first compound 0.06325 µM)	relative viability (Lapatinib + Foretinib; first compound 0.2 µM)	relative viability (Lapatinib + Foretinib; first compound 0.6325 µM)	relative viability (Lapatinib + Foretinib; first compound 2 µM)	relative viability (Lapatinib + AZD7762; first compound 0.06325 µM)	relative viability (Lapatinib + AZD7762; first compound 0.2 µM)	relative viability (Lapatinib + AZD7762; first compound 0.6325 µM)	relative viability (Lapatinib + AZD7762; first compound 2 µM)	relative viability (Lapatinib + Decitabine; first compound 0.02 µM)	relative viability (Lapatinib + Decitabine; first compound 0.06325 µM)	relative viability (Lapatinib + Decitabine; first compound 0.6325 µM)	relative viability (Lapatinib + Decitabine; first compound 2 µM)	relative viability (Lapatinib + Luminespib; first compound 0.02 µM)	relative viability (Lapatinib + Luminespib; first compound 0.06325 µM)	relative viability (Lapatinib + Luminespib; first compound 0.6325 µM)	relative viability (Lapatinib + Decitabine; first compound 0.2 µM)	relative viability (Lapatinib + AZD7762; first compound 0.02 µM)
ABC-1	0.509	0.64	0.949	0.912	1.16	1.32	0.964	0.73	0.821	0.774	1.07	1.1	0.931	1.01	1.02					
SW 1573	0.387	0.146	1.04	0.601	0.86	0.922	0.886					0.492	0.437	0.633	0.489	0.293	0.23	0.233	0.565	
NCI-H1299			1.1	0.885	1.12	1.1	1.05													
HCC-827	0.629	0.253	1.08	0.974	1.05	0.97	0.155	0.299	0.129	0.19	0.103	0.239	0.35	0.333	0.295	0.74	0.8	0.624	0.348	0.172
201T	1.03	1.04	1.18		1.03	1.03	0.76	0.585	0.601	0.591	0.608	0.845	0.812	0.827	0.817	1.02	0.976	1.03	0.813	0.513
HCC-15	0.303	0.235		0.812	1.02	0.949	0.971	1.09	1.24	1.24	1.16		0.537	0.64	0.568		0.425	0.293	0.677	
NCI-H2347	0.638	0.361		0.694	0.854	0.994	1.02	0.705	0.637	0.81	0.612	0.573	0.514	0.605	0.599		0.156	0.523	0.642	0.495
NCI-H596	1.04	0.756		0.832	0.756	0.835	0.789	0.878	0.939	1.1	0.819		0.979	1.04	0.957		0.879	0.944	0.793	
LXF-289	0.603	0.65	0.996	0.953	0.967	0.948	0.851	1.09	1.05	1.13	0.957	0.358	0.377	0.385	0.408	0.709	0.459	0.603	0.354	1.02
NCI-H1648								0.921	0.612	0.643	0.658		0.389	0.481	0.33				0.495	
NCI-H1563	0.537	0.474	0.861	0.881	0.953	0.831	0.857									0.538	0.509	0.461		
HCC-44	1.14	1.06						1.03	1.02	1.01	0.893	0.838	0.908	1.02	0.797		0.716	0.965	0.964	0.984
EBC-1			0.113	0.0941	0.0867	0.108	0.0963													
HCC-366				0.86	0.887	0.912	0.89	0.245	0.205	0.247	0.133		0.348	0.368	0.291				0.405	
COR-L23	0.731	0.567	0.949	0.872	0.918	0.971	0.891					0.516	0.421	0.417	0.422	0.715	0.688	0.646	0.456	
NCI-H2009	1.08	0.984	1.17	1.25	1.26	1.22	1.17					0.383	0.4	0.353	0.357	0.953	1.09	0.931	0.342	
A549			0.952	0.872	1.04	0.918	0.877						0.224	0.291	0.133				0.305	
CAL-12T	0.477	0.35		1.12	1.03	1.02	0.954	0.615	0.515	0.587	0.592						0.236	0.235		
NCI-H1623		0.408	0.702	0.637	0.634	0.785	0.277									0.429	0.437	0.456		
NCI-H520	0.26	0.233	0.891	0.672	0.855	1.01	0.67					0.433	0.494	0.529	0.575	0.21	0.226	0.242	0.572	
SK-LU-1	0.238	0.2	0.773	0.789	0.857	0.8	0.883					0.709	0.558	0.609	0.618	0.176	0.223	0.175	0.686	
NCI-H2228	0.145	0.123	0.837	0.714	0.96	0.826	0.701									0.137	0.128	0.143		
HCC-78				0.427	0.446	0.429	0.401	0.528	0.422	0.599	0.564		0.58	0.765	0.735				0.744	
COR-L 105	0.857	0.6	0.987	0.928	0.689	0.491	0.582					0.62	0.538	0.613	0.376	0.592	0.698	0.716	0.586	
